Results published in patent US9133266B2, “Vitronectin-derived cell culture substrate and uses thereof” (Wisconsin Alumni Research Foundation, priority 2011, dated 2015).

Columns and labels:
H1 ES cells = assay: Media component test: survival and proliferation of dissociated ES cells; type: cell-based, human; settings: for requirement for short-term survival (24 hours) and proliferation (82 hours) of human ES cells: factor removed from TeSR, FIG. 6A; for initial survival of human ES cells: added to defined medium, FIG. 6F; for cell survival and proliferation: FIG. 4A-B
Protocol: (§1) (A) Dissociated H1 ES cells were plated into different media (Table 1) on […]-coated plates, and cell survival was measured 24 hours after plating. […] (B) The same ES cells from FIG. […] (C) Dissociated cells were plated in three different media, and initial survival was measured 22 hours after plating (blue column) Proliferation was measured 129 hours after plating (red column) The three media were TESR™, TESR without L-ascorbic acid (TESR-LAA) and a simplified medium containing DMEM/F 12, NaHCO3 LAA, insulin and FGF2 (*p<0.05, n=3). (D) H1 cells were maintained in defined media (DMEM/F12, NaHCO3, Insulin, FGF2 and LAA) for multiple passages with or without selenium. 150,000 starting cells were seeded in each passage on day 0, 4 and 7. (E) Human H1 cells were grown in DMEM/F12, NaHCO3, Insulin, FGF2, LAA and selenium with or without NODAL for four passages, and OCT4 expression was analyzed by FACS. Green peak: anti-OCT4 primary antibody with Alexa-488 secondary antibody; unshaded peak: mouse IgG control. (F) Transferrin was tested with cloning assay in defined media (DMEM/F12, NaHCO3, Insulin, FGF2, LAA, and Selenium); human foreskin iPS cells (Yu et al., Science 318:1917-1920 (2007)) were used in this particular experiment with ROCK inhibitor HA100 (10 μM) in hypoxic conditions (*p<0.05, n=3). […] (G) E8 medium (Table 1), TESR™ and conditioned medium (CM) were tested by cloning assay with HA100 (*p<0.05, n=3). Hypoxia conditions (5% O2 and 10% CO2, red column) and normoxic conditions (5% CO2, blue column) were used in the test (*p<0.05, n=3). […] (H) E8 medium and TESR™ were used to culture ES and iPS cells for long-term expansion, and the proliferation dynamics was recorded in the first seven passages. 200,000 H1 and human foreskin iPS cells (Yu et al., Science 324:797-801 (2009)) were plated in each passage in E8 and TESR™ media in hypoxic conditions.
H1 cells were maintained in specific media for 5 days (2 passages), and RNA was purified for qRT-PCR to detect NANOG expression relative to GAPDH. […] A variety of basic media were used to make growth media with additional components (insulin, FGF2, LAA, Selenium, and NaHCO3). Dissociated H1 cells were plated in different media on […]-coated plates. […] Green peak: OCT4 antibody with Alexa-488 conjugated secondary antibody; Grey peak: mouse IgG control. […] Cells were treated with HA100 (10 μM) and Y27632) (10 μM) for 24 hours, and with blebbistatin (10 μM) for 4 hours (*p<0.05, n=3).

H1 cells = assay: Cloning assay; type: cell-based, human
Protocol: To determine how the various vitronectin variants affect cloning efficiency, the vitronectin polypeptide variants were tested in a cloning assay, essentially as described by Chen et al, Cell Stem Cell 7:240-248 (2010), incorporated herein by reference as if set forth in its entirety. Briefly, triplicates for each substrate were prepared in a 12-well plate. Prior to the addition of cells, 500 μL medium was added to each well. Cells were detached from their culture plate and dissociated with TrypLE for 5 minutes or until fully detached. TrypLE was neutralized with equal volumes of basic media, and the cells were counted, washed and then diluted to 5000 cells/mL. 100 μL of this cell suspension (500 cells) was added to each well. Plates were then incubated at 37° C., 5% O2 and 10% CO2 and the medium was changed every 1-2 day(s). After 5-6 days, colonies were stained with an APS kit (Vector Lab) following the manufacturer's instruction and counted.

human ES and iPS cells = assay: Long-term expansion of ES and iPS cells in defined medium; type: cell-based; settings: for long-term culture stability of human ES and iPS cells: NODAL 100 ng/ml or TGFβ 2 ng/ml added to simple medium
Protocol: as §1, with “FIG. 5A were cultured in the same media with daily media change, and proliferation was measured 96 hours after plating.” for “FIG.”

[1] = system: NANOG expression in H1 cells; assay: NANOG expression by qRT-PCR relative to GAPDH; type: cell-based, human; settings: NODAL 100 ng/ml or TGFβ 2 ng/ml in defined media; FIG. 6B
Protocol: FIG. 6 illustrates media components supporting human pluripotent stem cells. […] When those factors were removed, H1 ES cells survived (24 hours, blue columns) and proliferated (82 hours, red columns) as well as in TeSR. […] H1 cells were maintained in specific media for 5 days (2 passages), and RNA was purified for qRT-PCR to detect NANOG expression relative to GAPDH. (C) DMEM/F12 basic media is among the best basic media in the screen that supports human ES cell survival and proliferation. A variety of basic media were used to make growth media with additional components (insulin, FGF2, LAA, Selenium, and NaHCO3). Dissociated H1 cells were plated in different media on MATRIGEL-coated plates. Cell survival was measured at 24 hours (blue column) and cell proliferation at 52 hours (red column) (D) Defined media (DMEM/F12, insulin, FGF2, LAA, and Selenium) with NODAL supports pluripotency of human iPS cells. Flow cytometry detected high expression of pluripotency marker OCT4 in two iPS cell lines. Green peak: OCT4 antibody with Alexa-488 conjugated secondary antibody; Grey peak: mouse IgG control. Similar results were also obtained from H1 and H9 ES cells maintained in the same media. (E) Normal karyotypes were maintained after long-term passage for those iPS cells shown above. […] High OCT4 expression was detected in H1 and iPS cells. […]

human foreskin iPS cells = assay: Cloning assay in defined media with transferrin; type: cell-based; settings: defined media with HA100 (10 μM), hypoxic conditions; FIG. 4F
Protocol: FIG. 4 presents media components supporting human ES cell survival and proliferation. (A) Dissociated H1 ES cells were plated into different media (Table 1) on MATRIGEL-coated plates, and cell survival was measured 24 hours after plating. […] (B) The same ES cells from FIG. 5A were cultured in the same media with daily media change, and proliferation was measured 96 hours after plating. […] (C) Dissociated cells were plated in three different media, and initial survival was measured 22 hours after plating (blue column) Proliferation was measured 129 hours after plating (red column) The three media were […] without L-ascorbic acid (TESR-LAA) and a simplified medium containing DMEM/F 12, NaHCO3 LAA, insulin and FGF2 (*p<0.05, n=3). (D) H1 cells were maintained in defined media (DMEM/F12, NaHCO3, Insulin, FGF2 and LAA) for multiple passages with or without selenium. 150,000 starting cells were seeded in each passage on day 0, 4 and 7. (E) Human H1 cells were grown in DMEM/F12, NaHCO3, Insulin, FGF2, LAA and selenium with or without NODAL for four passages, and OCT4 expression was analyzed by FACS. Green peak: anti-OCT4 primary antibody with Alexa-488 secondary antibody; unshaded peak: mouse IgG control. […] (H) E8 medium and […] were used to culture ES and iPS cells for long-term expansion, and the proliferation dynamics was recorded in the first seven passages. […]

[2] = added to defined medium, FIG. 6G
[3] = TESR components in absence of BSA and BME

For `NCCCC(=O)O` [GABA], the “requirement for short-term survival (24 hours) and proliferation (82 hours) of human ES cells” value (shortened to “requirement for short-term survival”) (H1 ES cells) was “not required for short-term survival and proliferation”.

With `O=S(=O)(c1cccc2cnccc12)N1CCNCC1` [HA100, reference compound] the “cell survival after dissociation” value (H1 ES cells; 10 μM, TeSR, p<0.05, n=3) was “improved cell survival after dissociation”, the “initial survival of human ES cells” value (H1 ES cells) was “improved initial survival” and the cloning efficiency (H1 cells; E8 media, 10 μM for 24 hours, p<0.05, n=3) was “improved cloning efficiency as efficiently as Y27632 and blebbistatin”. For the same molecule, the cloning efficiency (H1 cells; [2]) was “supported a high cloning efficiency”.

With `O=C1O[C@H]([C@@H](O)CO)C(O)=C1O` [L-ascorbic acid] the ES cell proliferation (H1 ES cells; TESR components in absence of BSA and BME, FIG. 4C) was “promoted ES cell proliferation”.

`[Cl-].[Li+]` [LiCl] was tested, and the “requirement for short-term survival” value (H1 ES cells) was “not required for short-term survival and proliferation”.

With `O=C(O)C1CCCCN1` (stereo not drawn) [Pipecolic acid] the “requirement for short-term survival” value (H1 ES cells) was “not required for short-term survival and proliferation”.

`C[C@@H](N)[C@H]1CC[C@H](C(=O)Nc2ccncc2)CC1` [Y27632, reference compound] was tested, and the “initial survival of human ES cells” value (H1 ES cells) was “improved initial survival” and the cloning efficiency (H1 cells; [2]) was “supported a high cloning efficiency”.

In the case of `Cc1ccc2c(c1)C(=O)C1(O)CCN(c3ccccc3)C1=N2` (stereo not drawn) [blebbistatin, reference compound], the “initial survival of human ES cells” value (H1 ES cells) is reported as “improved initial survival” and the cloning efficiency (H1 cells; [2]) is reported as “supported a high cloning efficiency”.

With `[Se]` [selenium] the long-term sustained growth (human ES and iPS cells; defined media, multiple passages, FIG. 4D) was “necessary for long-term sustained growth”.

FGF2: growth factor medium component was tested, and the “cell survival and proliferation” value (H1 ES cells; [3]) was “remained important for cell survival and proliferation”.

For Insulin: medium component, the “cell survival and proliferation” value (H1 ES cells; [3]) was “remained important for cell survival and proliferation”.

With TGFβ the “requirement for short-term survival” value (H1 ES cells) was “not required for short-term survival and proliferation”, the NANOG expression levels [1] was “increased NANOG expression levels” and the “long-term culture stability of human ES and iPS cells” value (human ES and iPS cells) was “consistent long-term culture stability”.

In the case of “transferrin: protein medium component of E8”, the “cloning efficiency on addition of transferrin” value (human foreskin iPS cells) is reported as “further increased”.

B1: NODAL: growth factor medium component, 100 ng/mL, interchangeable with TGFβ in E8 media (protein, UniProt Q96S42 238-347, looked up)
Nodal homolog: HHLPDRSQLCRKVKFQVDFNLIGWGSWIIYPKQYNAYRCEGECPNPVGEEFHPTNHAYIQSLLKRYQPHRVPSTCCAPVKTKPLSMLYVDNGRVLLDHHKDMIVEECGCL
For B1, the NANOG expression levels [1] was “increased NANOG expression levels” and the “long-term culture stability of human ES and iPS cells” value (human ES and iPS cells) was “consistent long-term culture stability”.
